Tests used:
STEME [1] = test: Greenhouse trial, activity with different soil types; assay type: in vivo, Stellaria media; conditions: g of AS/ha: (A) 120, (B) 1200, (C) 90, mixture 120 + 1200 + 90
Protocol: (§1) In the standard design of the test, seeds of various broad-leaved weed and weed grass biotypes (origins) were sown in a 8-13 cm diameter pot filled with natural soil of a standard field soil (loamy silt; non-sterile) and covered with a covering soil layer of about 1 cm. The pots were then cultivated in a greenhouse (12-16 h of light, temperature day 20-22° C., night 15-18° C.) until the time of application. The pots were treated on a laboratory track sprayer with spray liquors comprising the compositions according to the invention, mixtures of the prior art or components used individually. Application of the active compounds or active compound combinations formulated as WG, WP, EC or otherwise was carried out at the appropriate growth stages of the plants. The application rate for the spray application was 100-600 l of water/ha. After the treatment, the plants were returned to the greenhouses.
(§2) About 3 weeks after the application, the soil action or/and foliar action was assessed visually according to a scale of 0-100% in comparison to an untreated comparative group: 0%=no noticeable effect compared to the untreated comparative group; 100%=full effect compared to the untreated comparative group.
(§3) (notes: the term “seeds” also includes vegetative propagation forms such as, for example, rhizome pieces; abbreviations used: h light=hours of illumination, g of AS/ha=gram of active substance per hectare, l/ha=liter per hectare, S=sensitive, R=resistant) • 1. Pre-emergence action against weeds: seeds of various broad-leaved weed and weed grass biotypes (origins) were sown in a 8-13 cm diameter pot filled with natural soil of a standard field soil (loamy silt; non-sterile) and covered with a covering soil layer of about 1 cm. The pots were then cultivated in a greenhouse (12-16 h of light, temperature day 20-22° C., night 15-18° C.) until the time of application. The pots were treated at the BBCH stage 00-10 of the seeds/plants on a laboratory track sprayer with spray liquors comprising the compositions according to the invention, mixtures or components used individually, as WG, WP, EC or other formulations. The application rate for the spray application was 100-600 l of water/ha. After the treatment, the plants were returned to the greenhouses and, when required, treated with fertilizer and watered. • 2. Post-emergence action against weeds: seeds of various broad-leaved weed and weed grass biotypes (origins) were sown in a 8-13 cm diameter pot filled with natural soil of a standard field soil (loamy silt; non-sterile) and covered with a covering soil layer of about 1 cm. The pots were then cultivated in a greenhouse (12-16 h of light, temperature day 20-22° C., night 15-18° C.) until the time of application. The pots were treated at various BBCH stages between 11-25 of the seeds/plants, i.e. generally between two to three weeks after the start of the cultivation, on a laboratory track sprayer with spray liquors comprising the compositions according to the invention, mixtures or components used individually, as WG, WP, EC or other formulations. The application rate for the spray application was 100-600 l of water/ha. After the treatment, the plants were returned to the greenhouses and, when required, treated with fertilizer and watered. • 3. Selective pre-emergence action: seeds of various crop species (origins) were sown in a 8-13 cm diameter pot filled with natural soil of a standard field soil (loamy silt; non-sterile) and covered with a covering soil layer of about 1 cm. The pots were then cultivated in a greenhouse (12-16 h of light, temperature day 20-22° C., night 15-18° C.) until the time of application. The pots were treated at the BBCH stage 00-10 of the seeds/plants on a laboratory track sprayer with spray liquors comprising the compositions according to the invention, mixtures or components used individually, as WG, WP, EC or other formulations. The application rate for the spray application was 100-600 l of water/ha. […]

MATCH = test: as above; assay type: in vivo, Matricaria chamomilla; conditions: g of AS/ha: (A) 120, (B) 1200, (C) 90, mixture 120 + 1200 + 90
Protocol: as §1, §2
(§4) (notes: the term “seeds” also includes vegetative propagation forms such as, for example, rhizome pieces; abbreviations used: h light=hours of illumination, g of AS/ha=gram of active substance per hectare, l/ha=liter per hectare, S=sensitive, R=resistant) • 1. Pre-emergence action against weeds: seeds of various broad-leaved weed and weed grass biotypes (origins) were sown in a 8-13 cm diameter pot filled with natural soil of a standard field soil (loamy silt; non-sterile) and covered with a covering soil layer of about 1 cm. The pots were then cultivated in a greenhouse (12-16 h of light, temperature day 20-22° C., night 15-18° C.) until the time of application. The pots were treated at the BBCH stage 00-10 of the seeds/plants on a laboratory track sprayer with spray liquors comprising the compositions according to the invention, mixtures or components used individually, as WG, WP, EC or other formulations. The application rate for the spray application was 100-600 l of water/ha. After the treatment, the plants were returned to the greenhouses and, when required, treated with fertilizer and watered. • 2. Post-emergence action against weeds: seeds of various broad-leaved weed and weed grass biotypes (origins) were sown in a 8-13 cm diameter pot filled with natural soil of a standard field soil (loamy silt; non-sterile) and covered with a covering soil layer of about 1 cm. The pots were then cultivated in a greenhouse (12-16 h of light, temperature day 20-22° C., night 15-18° C.) until the time of application. The pots were treated at various BBCH stages between 11-25 of the seeds/plants, i.e. generally between two to three weeks after the start of the cultivation, on a laboratory track sprayer with spray liquors comprising the compositions according to the invention, mixtures or components used individually, as WG, WP, EC or other formulations. The application rate for the spray application was 100-600 l of water/ha. After the treatment, the plants were returned to the greenhouses and, when required, treated with fertilizer and watered. • 3. […]

HORVS = test: as above; assay type: in vivo, Hordeum vulgare, summer barley; conditions: g of AS/ha: (A) 120, (B) 1200, (C) 90, mixture 120 + 1200 + 90
Protocol: as §1, §2, §4

STEME [2] = test: Greenhouse trial, PE application on sensitive and resistant biotypes (test method 8); assay type: in vivo, Stellaria media; conditions: g of AS/ha: (A) 90, (B) 1200, (C) 90, mixture 90 + 1200 + 90, iodosulfuron 10
Protocol: as §1
About 3 weeks after the application, the soil action or/and foliar action was assessed visually according to a scale of 0-100% in comparison to an untreated comparative group: 0%=no noticeable effect compared to the untreated comparative group; 100%=full effect compared to the untreated comparative group. […]

ALOMY = test: as above; assay type: in vivo, Alopecurus myosuroides; conditions: g of AS/ha: (A) 90, (B) 1200, (C) 90, mixture 90 + 1200 + 90, iodosulfuron 10
Protocol: as §1, §2, §3

APESV = test: Greenhouse trial, PE application at different sowing depths (test method 9); assay type: in vivo, Apera Spica-venti; conditions: g of AS/ha: (A) 120, (B) 1200, (C) 90, mixture 90 + 1200 + 90
Protocol: as §1, §2
(notes: the term “seeds” also includes vegetative propagation forms such as, for example, rhizome pieces; abbreviations used: h light=hours of illumination, g of AS/ha=gram of active substance per hectare, l/ha=liter per hectare, S=sensitive, R=resistant) • 1. Pre-emergence action against weeds: seeds of various broad-leaved weed and weed grass biotypes (origins) were sown in a 8-13 cm diameter pot filled with natural soil of a standard field soil (loamy silt; non-sterile) and covered with a covering soil layer of about 1 cm. The pots were then cultivated in a greenhouse (12-16 h of light, temperature day 20-22° C., night 15-18° C.) until the time of application. […]

TRZAW = test: as above; assay type: in vivo, Triticum aestivum, winter wheat; conditions: g of AS/ha: (A) 120, (B) 1200, (C) 90, mixture 90 + 1200 + 90
Protocol: as §1, §2
(notes: the term “seeds” also includes vegetative propagation forms such as, for example, rhizome pieces; abbreviations used: h light=hours of illumination, g of AS/ha=gram of active substance per hectare, l/ha=liter per hectare, S=sensitive, R=resistant) • 1. Pre-emergence action against weeds: seeds of various broad-leaved weed and weed grass biotypes (origins) were sown in a 8-13 cm diameter pot filled with natural soil of a standard field soil (loamy silt; non-sterile) and covered with a covering soil layer of about 1 cm. The pots were then cultivated in a greenhouse (12-16 h of light, temperature day 20-22° C., night 15-18° C.) until the time of application. The pots were treated at the BBCH stage 00-10 of the seeds/plants on a laboratory track sprayer with spray liquors comprising the compositions according to the invention, mixtures or components used individually, as WG, WP, EC or other formulations. The application rate for the spray application was 100-600 l of water/ha. After the treatment, the plants were returned to the greenhouses and, when required, treated with fertilizer and watered. • 2. Post-emergence action against weeds: seeds of various broad-leaved weed and weed grass biotypes (origins) were sown in a 8-13 cm diameter pot filled with natural soil of a standard field soil (loamy silt; non-sterile) and covered with a covering soil layer of about 1 cm. The pots were then cultivated in a greenhouse (12-16 h of light, temperature day 20-22° C., night 15-18° C.) until the time of application. […]

CCC(CC)Nc1c([N+](=O)[O-])cc(C)c(C)c1[N+](=O)[O-] [(B) pendimethalin, N-(1-ethylpropyl)-3,4-dimethyl-2,6-dinitrobenzenamine]
activity STEME IU soil (visual, scale 0-100%) (STEME [1]; IU soil): 85% | Difference of the soil types, STEME (STEME [1]; IU/EC73 soil versus IU soil): −30% | activity STEME IU/EC73 soil (visual, scale 0-100%) (STEME [1]; IU/EC73 soil): 55% | activity MATCH IU soil (visual, scale 0-100%) (MATCH; IU soil): 10% | Difference of the soil types, MATCH (MATCH; IU/EC73 soil versus IU soil): −10% | activity MATCH IU/EC73 soil (visual, scale 0-100%) (MATCH; IU/EC73 soil): 0% | activity on crop plant HORVS IU soil (visual, scale 0-100%) (HORVS; IU soil): 20% | Difference (of the soil types), HORVS (HORVS; IU/EC73 soil versus IU soil): −20% | activity on crop plant HORVS IU/EC73 soil (visual, scale 0-100%) (HORVS; IU/EC73 soil): 0% | activity STEME resistant (visual, scale 0-100%) (STEME [2]; resistant biotype): 10% | activity STEME sensitive (visual, scale 0-100%) (STEME [2]; sensitive biotype): 70% | activity ALOMY resistant (visual, scale 0-100%) (ALOMY; resistant biotype): 40% | activity ALOMY sensitive (visual, scale 0-100%) (ALOMY; sensitive biotype): 30% | activity APESV 5 mm (visual, scale 0-100%) (APESV; sowing depth 5 mm): 0% | activity APESV 20 mm (visual, scale 0-100%) (APESV; sowing depth 20 mm): 0% | activity on crop plant TRZAW 5 mm (visual, scale 0-100%) (TRZAW; sowing depth 5 mm): 45% | activity on crop plant TRZAW 20 mm (visual, scale 0-100%) (TRZAW; sowing depth 20 mm): 10%

From patent publication US20110152092A1, “Herbicidal compositions comprising flufenacet” (Bayer CropScience AG, priority 2009, published 2011)
